# Patent US20140296154A1, “METHOD OF PREVENTING DEVELOPMENT OF PSORIATIC LESIONS” (YALE UNIVERSITY, priority 2011, published 2014)
# Square brackets hold non-standard residues; d marks the D form. Ends that are not written are not given here.
# Experiments:
# A20 = assay: Western blot of A20 in skin of WT and PSX mice with and without TPA; format: in vivo, mouse; settings: topical TPA; wild-type and old (24-week) PSX mice compared to young (4-week) PSX mice
# [1] = tested on: PSX mice (K14-VEGF transgenic psoriasis model); assay: Ear thickness / psoriatic lesion development in PSX (homozygous K14-VEGF transgenic) mice; format: in vivo, mouse; settings: intraperitoneal 50 micrograms twice weekly; for mean ear thickness / psoriatic skin lesions: older PSX mice with fully developed psoriatic lesions, 8 weeks, vs untreated control
# Description: This K14-VEGF mouse was backcrossed to homozygosity for the transgene(s), generating a mouse model that develops psoriasiform lesions on the ears spontaneously and after trauma. These are referred to as PSX mice. […] FIGS. 3A-D illustrate the PSX transgenic mouse model used in screening psoriasis treatments in accordance with the present invention. […] FIGS. 3C and 3D show pathology of the mouse model.
# The NF-κB inhibitor used for the treatments in this example was the fusion protein drqikiwfqnrrmkwkkTALDWSWLQTE (SEQ ID NO: 122), where lower case letters indicate D-amino acid residues and upper case letters indicate L-amino acid residues. This inhibitor includes a translocation domain of Antennapedia and an Nemo Binding Domain (NBD) peptide.
# The peptide was formulated and administered as an intraperitoneal injection of 50 micrograms to either PSX mice after they had fully developed psoriatic skin lesions (FIG. 7) or prior to the development of psoriatic plaques when the ears were still uninvolved (FIG. 8). Assessment of the development of psoriatic lesions was measured by the thickness of ear tissue.
# [2] = Topical delivery of FITC-labeled NBD peptide into skin; format: in vivo
# Description: To assess the ability to deliver the NBD peptide of SEQ ID NO: 122 topically, the peptide was conjugated to the fluorophore FITC, and the labeled peptide prepared in two different formulations. The first formulation consisted of the labeled peptide dissolved in vaseline ointment, and the second formulation consisted of the labeled peptide dissolved in DMSO.
molecule,measurement,setting,value
"CCCCCCCCCCCCCC(=O)O[C@@H]1[C@@H](C)[C@@]2(O)[C@@H](C=C(CO)C[C@]3(O)C(=O)C(C)=C[C@@H]23)[C@@H]2C(C)(C)[C@]12OC(C)=O [TPA, 12-O-tetradecanoyl phorbol-13-acetate]",A20 protein induction,A20,robust induction
drqikiwfqnrrmkwkkTALDWSWLQTE ([dD][dR][dQ][dI][dK][dI][dW][dF][dQ][dN][dR][dR][dM][dK][dW][dK][dK]TALDWSWLQTE) [SEQ ID NO: 122],mean ear thickness / psoriatic skin lesions,[1]; listed as NF-κB inhibitor,no change
same,mean ear thickness / psoriatic skin lesions,[1]; listed as peptide,no effect
same,thickening of the ear and development of phenotypic lesions of psoriasis,"[1]; young PSX mice treated prior to development of psoriatic plaques, vs vehicle (DMSO)",prevented the thickening of the ear
"FITC-conjugated NBD peptide of SEQ ID NO: 122: NBD peptide of SEQ ID NO: 122 conjugated to the fluorophore FITC, in vaseline ointment or DMSO ([dD][dR][dQ][dI][dK][dI][dW][dF][dQ][dN][dR][dR][dM][dK][dW][dK][dK]TALDWSWLQTE; also: FITC conjugate, site not given here)",peptide localisation in skin after topical administration,[2]; peptide in DMSO,uptake is prevalent among the cells in both the epidermis and dermis
same,peptide localisation in skin after topical administration,[2]; peptide in vaseline ointment,limited to the stratum corneum
